The results in this text go back to US12221406B2, “Compounds as NLRP3 inflammasome inhibitors and compositions and uses thereof” (VIRGINIA COMMONWEALTH UNIVERSITY, priority 2019, dated 2025).

Molecules are shown by their SMILES.

Data set [1] in a line: In vivo BBB penetration in mice, plasma and brain by LC-MS/MS. Set-up: species or system C57BL/6 mice. To be noted: PO 20 mg/kg. The method, then:
(§1) […]. […] […]. Plasma samples ([…]) were collected at 0.08, 0.17, 0.25, 0.5, 0.75, 1.0, 2.0, 4.0, 8.0, 12.0, and 24.0 h time points through orbital vein and were stored in −80° C. freezer for later analysis.
(§2) Samples were mixed by vortexing for 30 seconds. […] […]. […] […].

A further data set has as its target T1, AIM2 inflammasome (Mus musculus, UniProt Q91VJ1).
T1 construct: endogenous in cells; host or cells: J774A.1 murine macrophage cell line (LPS + Poly(dA:dT))
T1 sequence (Q91VJ1 1-354): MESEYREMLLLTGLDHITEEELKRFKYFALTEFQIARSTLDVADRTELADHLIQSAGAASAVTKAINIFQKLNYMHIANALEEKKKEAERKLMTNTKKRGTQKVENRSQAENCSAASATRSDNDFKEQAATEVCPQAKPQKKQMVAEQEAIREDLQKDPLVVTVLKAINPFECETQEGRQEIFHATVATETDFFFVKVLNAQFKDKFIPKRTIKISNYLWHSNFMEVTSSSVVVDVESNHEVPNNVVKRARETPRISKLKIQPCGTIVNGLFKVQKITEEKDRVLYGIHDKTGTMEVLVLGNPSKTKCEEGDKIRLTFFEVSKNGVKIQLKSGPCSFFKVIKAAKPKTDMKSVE
As to the kind of experiment: AIM2 inflammasome assay in J774A.1 cells (LPS/Poly(dA:dT), IL-1β ELISA). It counts as cell-based, murine. Particulars: compound 10 μM. The protocol:
(§3) J774A.1 cells were plated into a 96-well plate. […] Cells were treated with LPS (1 μg/mL) and test compounds for 1 h. Flagellin or poly-deoxyadenylic-deoxythymidylic acid sodium salt (Poly(dA:dT)) was used to induce the formation of the NLRC4 and the AIM2 inflammasomes.

A further data set addresses T2, NLRC4 inflammasome (Mus musculus, UniProt Q3UP24).
T2 construct: endogenous in cells; host or cells: J774A.1 murine macrophage cell line (LPS + transfected flagellin)
As to the kind of experiment: NLRC4 inflammasome assay in J774A.1 cells (LPS/flagellin, IL-1β ELISA). The format is cell-based, murine. Particulars: compound 10 μM. The method, then: as §3

Data set [2] in a line: PK study in rats, IV and PO, plasma by LC-MS/MS. It counts as in vivo, Sprague-Dawley rats. The method, then: as §1, §2
A further data set concerns hCMEC/D3 cells. Briefly: Cytotoxicity on hCMEC/D3 cells (Live/Dead kit). It counts as cell-based, human. To be noted: 20 μM, 2 h.

`C#CCNS(=O)(=O)c1ccc(CCN(Cc2cc(Cl)ccc2OCCC)C(=O)Cc2ccsc2)cc1` [SZ-N3I-45, N-(5-chloro-2-propoxybenzyl)-N-(4-(N-(prop-2-yn-1-yl)sulfamoyl)phenethyl)-2-(thio-phen-3-yl)acetamide] yielded a plasma concentration in data set [1] (0.5 hours) of 277.33 ± 182.15 ng/mL. For the same compound, in data set [1] (4 h), the “brain concentration after approximate conversion” value is “around 12 nM”. Further, the “effect on IL-1β production by AIM2 inflammasome” value at AIM2 inflammasome is recorded as “did not significantly interfere”. Moreover, the “effect on IL-1β production by NLRC4 inflammasome” value on NLRC4 inflammasome is “did not significantly interfere”. Moreover, in data set [2] (20 mg/kg PO vs IV), the “oral bioavailability (Foral)” value came out at 10%. Moreover, in data set [2] (IV 20 mg/kg), the “steady-state volume of distribution (Vdss)” value turned out to be 8.5 L/kg, the “terminal plasma half-life (t½)” value is reported as 6.6 h and the “total clearance (CLtot)” value is given as 41 mL/min/kg. In data set [2] (PO 20 mg/kg), this compound had a cmax of 73 ng/mL and a tmax of 12 h. For the same compound, the “cytotoxicity on hCMEC/D3 cells” value in the data set with hCMEC/D3 cells is reported as “did not show significant toxic effects”.
